Source: patent US20040224984A1, “Methods of treating inflammations and infections with pyridinium salts” (priority 2003, published 2004)

Columns and labels:
[1] = tested on: roundworms, threadworms, and whipworms; conditions: reported; U.S. Pat. No. 3,075,975 and 3,085,935; cited from earlier work
Rodent [2] = experiment: 4 Hour Allergic Synovitis (rodent inflammation model); assay type: in vivo; conditions: Prednisolone 0.05 mg/kg
Rodent [3] = experiment: 4 Hour Allergic Pleuritis (rodent inflammation model); assay type: in vivo; conditions: Prednisolone 0.004 mg/kg
Rodent [4] = experiment: 4 Hour Carrageenan Pleuritis (rodent inflammation model); assay type: in vivo; conditions: Prednisolone 0.02 mg/kg
Candida albicans = experiment: Vaginal candidiasis in female Charles River mice; assay type: in vivo; conditions: mice infected vaginally, 0.025 mL daily for 4 days from 6 hours post-infection, formula I 0.5% (w/v), chlortrimazole 1% (w/v)
Protocol: Mice, infected vaginally with Candida albicans, were treated with 0.025 mL of the above treatments, commencing 6 hours post-infection, daily for 4 days.

## CC[n+]1c(/C=C/c2ccc(N3CCCC3)cc2)cccc1/C=C/c1ccc(N2CCCC2)cc1.[I-] [Stilbazium iodide]
[1]
  Anthelmintic efficacy: effective against roundworms, threadworms, and whipworms

## C[C@]12C=CC(=O)C=C1CC[C@@H]1[C@@H]2[C@@H](O)C[C@@]2(C)[C@H]1CC[C@]2(O)C(=O)CO [Prednisolone]
Rodent [2]
  % Inhibition Edema: 36%
  % Inhibition Neutrophils: 37%
Rodent [3]
  % Inhibition Edema: 33%
  % Inhibition Neutrophils: 25%
Rodent [4]
  % Inhibition Edema: 31%
  % Inhibition Neutrophils: 21%

## Clc1ccccc1C(c1ccccc1)(c1ccccc1)n1ccnc1 [Chlortrimazole]
Candida albicans; mice cleared/treated
  Cleared: 7/10
Candida albicans; mice improved/treated
  Improved: 2/10
